≈ marks a conversion by molar mass, not a printed value.
Tests used:
[1] = Plasma PK in monkeys, powder in capsule; assay type: in vivo; conditions: micronized (d90 5), single oral 15 mg/kg, cynomolgus monkeys
Description: Non-naïve male cynomolgus monkeys were used in this study with at least a 7-day washout period prior to dosing Animals were administered micronized Form A, unmicronized Form A, or micronized Form C powder in capsule by single oral administration at 15 mg/kg. The capsules were prepared according to the animals' body weights on dosing day. Blood samples were collected at 0.25, 0.5, 1, 2, 4, 8, 24, 48, and 72 hours post-dose.

[2] = Biorelevant media solubility of Forms A and C; assay type: physicochemical; conditions: for Solubility / Final XRPD: 37° C.
Description: Biorelevant media solubility of Forms A and C were studied in water, SGF, FaSSIF, and FeSSIF at 37° C. 10-20 mg of Form A or C was weighed into 2-3 mL glass vials and media was added to achieve a solids loading of ˜5 mg/mL. Each slurry was magnetically agitated at 750-1000 rpm at 37° C., filtered via centrifugation, and the supernatant was analyzed by HPLC to determine solubility. In all cases, there was no polymorphic form change observed by XRPD analysis of the filtered solids.

[3] = Plasma PK in monkeys, nanosuspension; assay type: in vivo; conditions: nanosuspension in deionized water, single oral 25 mg/kg, cynomolgus monkeys
Description: Non-naïve male cynomolgus monkeys were used in this study with at least a 7-day washout period prior to dosing Animals were administered a nanosuspension of Form C as a single oral administration at 25 mg/kg. The nanosuspension was prepared by suspending nano-milled Form C in deionized water (5 mg/mL) to obtain an opaque homogenous suspension. Blood samples were collected at 0.25, 0.5, 1, 2, 4, 8, 24, 48, and 72 hours post-dose. Concentrations of Compound I in plasma samples were determined by LC/MS/MS.
A separate study was performed for a nanosuspension of Form A.

[4] = Plasma PK in rats, nanosuspension; assay type: in vivo; conditions: nanosuspension in deionized water, single oral 25 mg/kg, Wistar Han rats
Description: Wistar Han rats were administered a nanosuspension of Form A or Form C as a single oral administration at 25 mg/kg. The nanosuspensions were prepared by suspending nano-milled Form A or Form C in deionized water (2.5 mg/mL) to obtain opaque homogenous suspensions. Blood samples were collected at 0.25, 0.5, 1, 2, 4, 8, 24, 48, and 72 hours post-dose. Concentrations of Compound I in plasma samples were determined by LC/MS/MS.

[5] = Solid form stability on storage; assay type: physicochemical
Description: To evaluate the solid form stability, Forms A and C were stored under 25° C./60% RH (open), 40° C./75% RH (open), and 60° C. for up to 4 weeks. Samples were analyzed by XRPD, TGA, DSC, and HPLC purity.

[6] = Dynamic vapor sorption (hygroscopicity); assay type: physicochemical; conditions: DVS
Description: DVS analysis was carried out using a Surface Measurement System DVS Intrinsic analyzer. The instrument was calibrated with standard weights. Approximately 15-20 mg of sample was loaded into a pan for analysis. The sample was analyzed at 25° C. in 10% relative humidity (RH) steps from 0 to 95% RH (adsorption cycle) and from 95 to 0% RH (desorption cycle). The movement from one step to the next occurred either after satisfying the equilibrium criterion of 0.002% weight change (dm/dt) or, if the equilibrium criterion was not met, after ten hours.

`O=C(COc1ccc(Cl)cc1)NC12CC(c3nnc([C@H]4C[C@@H](OC(F)(F)F)C4)o3)(C1)C2` (single isomer, unassigned) [Form C, 2-(4-chlorophenoxy)-N-[3-[5-[cis-3-(trifluoromethoxy)cyclobutyl]-1,3,4-oxadiazol-2-yl]-1-bicyclo[1.1.1]pentanyl]acetamide] showed an AUC0-24 h [1] of 117 ± 39 μM-hr, a Cmax [1] of 7.6 ± 3.4 µM and a Tmax [1] of 4 h. It also gave a Solubility ([2]; FaSSIF) of 9.65 µg/mL (≈ 21.1 µM), a Solubility ([2]; FeSSIF) of 16.14 µg/mL (≈ 35.3 µM) and a Solubility ([2]; SGF) of 0.56 µg/mL (≈ 1.22 µM). The Solubility ([2]; Water) was 1.02 µg/mL (≈ 2.23 µM), the “Final XRPD” value ([2]; filtered solids after slurry in FaSSIF) was “Form C” and the “Final XRPD” value ([2]; filtered solids after slurry in FeSSIF) was “Form C”. The “Final XRPD” value ([2]; filtered solids after slurry in SGF) was “Form C”, the “Final XRPD” value ([2]; filtered solids after slurry in Water) was “Form C” and the aqueous solubility ([2]; listed as Compound I Form C) was “about 1.02 micrograms/mL”. For the same compound, the AUC0-24 h [3] was 367 ± 99 μM-hr, the Cmax [3] was 21.7 ± 4.2 µM and the Tmax [3] was 8 h. It also gave a Tmax [4] of 8 h, an AUC0-48 h ([4]; 25 mg/kg) of 1658 ± 211 μM-hr and a Cmax ([4]; 25 mg/kg) of 101 ± 10 µM. The DSC endotherm ([5]; 25° C./60% RH (open), 2 week) was 133.7 °C, the HPLC purity ([5]; 25° C./60% RH (open), 2 week) was 99.7% and the “TGA loss (%, to 150° C.)” value ([5]; 25° C./60% RH (open), 2 week) was 0.4%. The XRPD ([5]; 25° C./60% RH (open), 2 week) was “Form C”, the DSC endotherm ([5]; 25° C./60% RH (open), 4 week) was 133.3 °C and the HPLC purity ([5]; 25° C./60% RH (open), 4 week) was 99.7%. For the same compound, the “TGA loss (%, to 150° C.)” value ([5]; 25° C./60% RH (open), 4 week) was 0.3%, the XRPD ([5]; 25° C./60% RH (open), 4 week) was “Form C” and the “solid form stability (form change, weight gain, purity changes)” value ([5]; 25° C./60% RH (open), 40° C./75% RH (open), 60° C., up to 4 weeks) was “No form change, weight gain, or purity changes”. For the same compound, the DSC endotherm ([5]; 40° C./75% RH (open), 2 week) was 133.6 °C, the HPLC purity ([5]; 40° C./75% RH (open), 2 week) was 99.7% and the “TGA loss (%, to 150° C.)” value ([5]; 40° C./75% RH (open), 2 week) was 0.2%. For the same compound, the XRPD ([5]; 40° C./75% RH (open), 2 week) was “Form C”, the DSC endotherm ([5]; 40° C./75% RH (open), 4 week) was 133.3 °C and the HPLC purity ([5]; 40° C./75% RH (open), 4 week) was 99.8%. For the same compound, the “TGA loss (%, to 150° C.)” value ([5]; 40° C./75% RH (open), 4 week) was 0.2%, the XRPD ([5]; 40° C./75% RH (open), 4 week) was “Form C” and the DSC endotherm ([5]; 60° C. (closed), 2 week) was 133.6 °C. The HPLC purity ([5]; 60° C. (closed), 2 week) was 99.8%, the “TGA loss (%, to 150° C.)” value ([5]; 60° C. (closed), 2 week) was 0.3% and the XRPD ([5]; 60° C. (closed), 2 week) was “Form C”. For the same compound, the DSC endotherm ([5]; 60° C. (closed), 4 week) was 133.0 °C, the HPLC purity ([5]; 60° C. (closed), 4 week) was 99.8% and the “TGA loss (%, to 150° C.)” value ([5]; 60° C. (closed), 4 week) was 0.2%. For the same compound, the XRPD ([5]; 60° C. (closed), 4 week) was “Form C”, the DSC endotherm ([5]; Initial) was 133.1 °C and the HPLC purity ([5]; Initial) was 99.8%. The “TGA loss (%, to 150° C.)” value ([5]; Initial) was 0.1%, the XRPD ([5]; Initial) was “Form C” and the Hygroscopicity [6] was “Non-hygroscopic”. The “weight change / form change after exposure to humidity” value [6] was “no weight change and no polymorphic change”.
